Assay [1] is described as follows: Test for initiator properties: photopolymerisation of HDDA with the acrylimide added as initiator. As to conditions: approx. 6 mol-% imido groups in HDDA, 250-450 nm, 900 mW/cm^2; for DBC: double bond conversion from heat of polymerisation; for Rate: mean polymerisation rate of the mixture, means of multiple determinations; for tmax: time to exotherm maximum (maximum polymerisation rate). An excerpt:
Dabei wurden die üblichen Polymerisationsparameter aufgezeichnet, und die Ergebnisse sind (als Mittelwerte von […]) in […] gibt die "Rate" die […]) des jeweiligen […] an. "DBC" ("double bond conversion"; in %) […] aus der Polymerisationswä[…] an polymerisierten Doppelbindungen, bezogen auf die […], und "tmax" ist die bis zum Erreichen des […]. bis zur […]) erforderliche Zeit (in s). Zusätzlich sind der Gehalt der jeweiligen Verbindung in HDDA in Gew.-% und in Mol-% sowie der Gehalt an Acrylimidogruppen in Mol-% angegeben. Tabelle 1

Assay [2] is described as follows: Test under self-initiation: irradiation and polymerisation in bulk without additional initiator. Set-up: Rate: unit not given here. As to conditions: for DBC / Rate / tmax: 100 wt-% compound, in bulk, no additional initiator; for Polymerisationsraten in Substanz gegenüber Verwendung als Initiatoren für HDDA (Faktor): ratio of rate in bulk to rate of the same compound as initiator in HDDA.

Assay [3] can be described thus: Preliminary tests of the inventors on di(meth)acrylated carboxamides (reactivity / initiator properties). From the text: Da sich in der Literatur keine Hinweise auf derartige Eigenschaften von Di(meth)-acrylamiden fanden, zielten Vorversuche der Erfinder auf Triacylamide ab, in denen zwei der Acylgruppen (Meth)acrylgruppen waren.

`C=CC(=O)N(CCC)C(=O)C=C` [[12], N-Propylacrylimid]: in assay [1], the DBC was 82,6%, the Rate was 29,8 10^3 mol/l.s and the tmax is given as 159,6 s. For the same molecule, in assay [2], the DBC is 95,2%, the Rate was 196,3 and the tmax is recorded as 20,4 s.

As for `C=CC(=O)N(CCCCCC)C(=O)C=C` [[13], N-Hexylacrylimid], in assay [1], the DBC was 80,2%, the Rate was 28,5 10^3 mol/l.s and the tmax is recorded as 159,9 s. Besides, in assay [2], the DBC is on record as 92,7%, the Rate is 170,0 and the tmax is on record as 21,3 s.

Regarding `C=CC(=O)N(CC(CC)CCCC)C(=O)C=C` (stereo not drawn) [[14], N-2-Ethylhexylacrylimid], in assay [1], the DBC was 80,9%, the Rate is recorded as 28,3 10^3 mol/l.s and the tmax was 157,1 s. In addition, in assay [2], the DBC is reported as 89,1%, the Rate is 164,8 and the tmax is on record as 21,8 s.

With `C=CC(=O)N(CCN(CC)CC)C(=O)C=C` [[15], N-(2-Diethylaminoethyl)acrylimid], in assay [1], the DBC is recorded as 80,2%, the Rate is given as 27,7 10^3 mol/l.s and the tmax is on record as 160,8 s. For the same molecule, in assay [2], the DBC was 90,3%, the Rate is on record as 167,4 and the tmax is 20,9 s.

For the molecule `C=CC(=O)N(CCCCCCN(C(=O)C=C)C(=O)C=C)C(=O)C=C` [[16], N,N'-(1,6-Hexylen)bisacrylimid], in assay [1], the DBC is on record as 75,7%, the Rate is 20,6 10^3 mol/l.s and the tmax is 162,4 s.

In the case of `C=CC(=O)N(CCC(C)(C)CC(C)CN(C(=O)C=C)C(=O)C=C)C(=O)C=C` (stereo not drawn) [[17], N,N'-(2,4,4-Trimethyl-1,6-hexylen)bisacrylimid], in assay [1], the DBC is listed as 75,3%, the Rate is given as 20,2 10^3 mol/l.s and the tmax is 165,0 s. In addition, in assay [2], the DBC was 78,9%, the Rate is listed as 42,6, the tmax is on record as 19,5 s and the “Polymerisationsraten in Substanz gegenüber Verwendung als Initiatoren für HDDA (Faktor)” value (shortened to “Polymerisationsraten”) is reported as approximately 2.

Turning to `C=CC(=O)N(CC1CCCC(CN(C(=O)C=C)C(=O)C=C)C1)C(=O)C=C` (stereo not drawn) [[18], N,N'-(1,3-Cyclohexylendimethylen)bisacrylimid], in assay [1], the DBC is listed as 73,6%, the Rate is 19,1 10^3 mol/l.s and the tmax is recorded as 167,5 s.

As for `C=CC(=O)N(CCCCCCCCCCCCN(C(=O)C=C)C(=O)C=C)C(=O)C=C` [[19], N,N'-(1,12-Dodecylen)bisacrylimid], in assay [1], the DBC was 76,8%, the Rate is recorded as 20,9 10^3 mol/l.s and the tmax is 163,9 s.

Regarding `C=CC(=O)N(CCOCCOCCN(C(=O)C=C)C(=O)C=C)C(=O)C=C` [[20], N,N'-(3,6-Dioxa-1,8-octylen)bisacrylimid], in assay [1], the DBC was 74,8%, the Rate is given as 21,2 10^3 mol/l.s and the tmax is 171,2 s.

Turning to `C=CC(=O)N(CCC[Si](C)(C)O[Si](C)(C)CCCN(C(=O)C=C)C(=O)C=C)C(=O)C=C` [[21], N,N'-(4,6-Disila-5-oxa-4,4,6,6-tetramethyl-1,9-nonylen)bisacrylimid], in assay [1], the DBC is 78,2%, the Rate is listed as 23,4 10^3 mol/l.s and the tmax is 153,0 s. Also, in assay [2], the DBC was 80,2%, the tmax is recorded as 19,2 s and the “Polymerisationsraten” value is approximately 2.

As for `C=CC(=O)N(CCN(CCN(C(=O)C=C)C(=O)C=C)CCN(C(=O)C=C)C(=O)C=C)C(=O)C=C` [[22], Tris(2-acrylimidoethyl)amin], in assay [1], the DBC is on record as 72,4%, the Rate is given as 17,8 10^3 mol/l.s and the tmax is recorded as 182,2 s. Also, in assay [2], the DBC is given as 73,5%, the Rate is 38,1, the tmax was 16,8 s and the “Polymerisationsraten” value is approximately 2.

For the molecule Diacrylpropionamid, the “Reaktivität / Initiatoreigenschaften” value in assay [3] is given as “mäßig reaktive Monomere ohne Initiatoreigenschaften”.

Values taken from patent EP1956033A1, “Acrylimides with initiator characteristics” (Mondi Release Liner Austria GmbH, priority 2007, dated 2008).
